Patent US12281149B2, “Modulators of G-protein coupled receptors” (priority 2021, dated 2025)
Read-outs that look alike come from different tables or passages of the source. *1 amine or outer side, *2 acyl side, *3 side chain or, on linkers, in order; H or OH if unused. Where a SMILES comes first, the peptide text is derived from it. Side-chain parts run from the residue outwards. [ ]: non-standard residue; d: D form. The star is where a group is joined. cPentCO(1-(4-ClPh)) = O=C(C1(c2ccc(Cl)cc2)CCCC1)*; C20 diacid = O=C(O)CCCCCCCCCCCCCCCCCCC(=O)*; αMePhe(2-F) = C[C@](N)(Cc1ccccc1F)C(=O)O; β2hAla(2S) = C[C@@H](CN[*:1])C(=O)[*:2]; γGlu = O=C(O)[C@H](CCC(=O)[*:2])N[*:1]; X48 = CC(C)[C@H](C(=O)*)c1ccc(Cl)cc1; X62 = O=C(C1(c2cccc(Cl)c2)CCCC1)*; X18 = O=C(C1(c2cccc(F)c2)CCCC1)*; X46 = O=C(C1(c2ccccc2)CCOCC1)*; AEEA = NCCOCCOCC(=O)O; Aib = CC(C)(N)C(=O)O; βAla = NCCC(=O)O

Tests used:
Type in all cases: cell-based
GIP receptor [1] = target: T1, GIP receptor (Homo sapiens, UniProt P48546); assay: HitHunter cAMP assay, GIP receptor; settings: for Emax: read-out: Emax GIP-1R
T1 sequence (P48546 22-466): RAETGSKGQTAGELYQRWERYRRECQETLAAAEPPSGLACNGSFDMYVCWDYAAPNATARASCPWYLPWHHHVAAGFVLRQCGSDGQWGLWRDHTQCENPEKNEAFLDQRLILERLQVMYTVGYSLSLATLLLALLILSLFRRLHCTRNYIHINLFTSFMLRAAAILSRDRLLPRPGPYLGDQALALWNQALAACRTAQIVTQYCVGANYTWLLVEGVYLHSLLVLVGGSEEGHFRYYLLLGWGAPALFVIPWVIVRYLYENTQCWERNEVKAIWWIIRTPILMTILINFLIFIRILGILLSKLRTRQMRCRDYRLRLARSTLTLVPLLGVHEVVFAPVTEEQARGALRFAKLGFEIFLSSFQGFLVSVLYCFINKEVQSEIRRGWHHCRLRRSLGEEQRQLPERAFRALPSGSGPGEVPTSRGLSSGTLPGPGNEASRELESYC

GLP-1 receptor [2] = target: T2, GLP-1 receptor (Homo sapiens, UniProt P43220); assay: HitHunter cAMP assay, GLP-1 receptor; settings: for Emax: read-out: Emax GLP-1R
GLP-1 receptor [3] = target: T2, GLP-1 receptor; assay: PathHunter β-arrestin assay, GLP-1 receptor; parameters: host or cells: PathHunter CHO-K1 GLP1R β-Arrestin Cell Line
GIP receptor [4] = target: T1, GIP receptor; assay: PathHunter β-arrestin assay, GIP receptor; parameters: host or cells: PathHunter CHO-K1 GIPR β-Arrestin Cell Line
[5] = CHO cells stably expressing GIP receptor, cAMP accumulation, 30 min, read-out: EC50 GIP-1R
[6] = CHO cells, cAMP, normalized to maximum signal from GIP (high) and DMSO (low)
[7] = CHO cells stably expressing human GLP-1 receptor, cAMP accumulation, 30 min, read-out: EC50 GLP-1R
[8] = CHO cells, cAMP, normalized to maximum signal from GLP-1 (high) and DMSO (low)
[9] = β-arrestin-2 recruitment, PathHunter CHO-K1 GLP1R β-Arrestin Cell Line, 90 min at 37° C., normalized to GLP-1, read-out: GLP-1R β Arrestin EC50
[10] = β-arrestin-2 recruitment, PathHunter CHO-K1 GIPR β-Arrestin Cell Line, 90 min at 37° C., normalized to GIP, read-out: GIPR β Arrestin EC50

T2 sequence (P43220 24-463): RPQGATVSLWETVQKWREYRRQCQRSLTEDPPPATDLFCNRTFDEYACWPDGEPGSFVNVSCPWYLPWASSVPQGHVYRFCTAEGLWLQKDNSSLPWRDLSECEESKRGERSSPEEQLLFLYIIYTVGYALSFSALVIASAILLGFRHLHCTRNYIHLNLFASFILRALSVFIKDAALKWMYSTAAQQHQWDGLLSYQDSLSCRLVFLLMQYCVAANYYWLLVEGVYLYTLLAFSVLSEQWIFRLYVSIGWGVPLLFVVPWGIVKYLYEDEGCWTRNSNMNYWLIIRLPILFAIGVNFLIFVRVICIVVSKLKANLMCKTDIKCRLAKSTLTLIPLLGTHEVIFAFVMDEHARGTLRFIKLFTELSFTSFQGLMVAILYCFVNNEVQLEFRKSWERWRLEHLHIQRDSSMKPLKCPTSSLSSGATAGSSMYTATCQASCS

Row | SMILES | EC50 (GIP receptor [1]) | Emax (GIP receptor [1]; CHO) | EC50 (GLP-1 receptor [2]) | Emax (GLP-1 receptor [2]; CHO) | EC50 (GLP-1 receptor [3]) | EC50 (GIP receptor [4]) | EC50 (GIP receptor [1]; [5]) | Emax (GIP receptor [1]; [6]) | EC50 (GLP-1 receptor [2]; [7]) | Emax (GLP-1 receptor [2]; [8]) | EC50 (GLP-1 receptor [3]; [9]) | EC50 (GIP receptor [4]; [10])
1 | CC[C@H](C)[C@H](NC(=O)[C@H](CC(C)C)NC(=O)[C@H](Cc1c[nH]c2ccccc12)NC(=O)[C@H](CCC(N)=O)NC(=O)[C@@H](NC(=O)[C@H](Cc1ccccc1)NC(=O)[C@H](C)NC(=O)[C@H](CCCCNC(=O)COCCOCCNC(=O)COCCOCCNC(=O)CC[C@H](NC(=O)CCCCCCCCCCCCCCCCCCC(=O)O)C(=O)O)NC(=O)[C@H](CCC(N)=O)NC(=O)[C@H](C)NC(=O)[C@@H](NC(=O)[C@H](CCCCN)NC(=O)[C@H](CC(=O)O)NC(=O)[C@H](CC(C)C)NC(=O)C(C)(C)NC(=O)[C@@H](NC(=O)[C@H](CO)NC(=O)[C@H](Cc1ccc(O)cc1)NC(=O)[C@H](CC(=O)O)NC(=O)[C@H](CO)NC(=O)[C@@H](NC(=O)[C@H](Cc1ccccc1)NC(=O)[C@@H](NC(=O)CNC(=O)[C@H](CCC(=O)O)NC(=O)CCNC(=O)[C@H](c1ccc(Cl)cc1)C(C)C)[C@@H](C)O)[C@@H](C)O)[C@@H](C)CC)[C@@H](C)CC)C(C)C)C(=O)N[C@@H](C)C(=O)NCC(=O)NCC(=O)N1CCC[C@H]1C(=O)N[C@@H](CO)C(=O)N[C@@H](CO)C(=O)NCC(=O)N[C@@H](C)C(=O)N1CCC[C@H]1C(=O)N1CCC[C@H]1C(=O)N1CCC[C@H]1C(=O)N[C@@H](CO)C(N)=O [Compound 177] ({X48-βAla}-EGTFTSDYSI[Aib]LDKIAQK([AEEA-AEEA-γGlu-C20 diacid])AFVQWLIAGGPSSGAPPPS-NH2) | 10 to 100 nM | 94% | 1 to 10 nM | 95% | > 1000 nM | > 1000 nM |  |  |  |  |  | 
2 | CC[C@H](C)[C@H](NC(=O)[C@H](CC(C)C)NC(=O)[C@H](Cc1c[nH]c2ccccc12)NC(=O)[C@H](CCC(N)=O)NC(=O)[C@@H](NC(=O)[C@H](Cc1ccccc1)NC(=O)[C@H](C)NC(=O)[C@H](CCCCNC(=O)COCCOCCNC(=O)COCCOCCNC(=O)CC[C@H](NC(=O)CCCCCCCCCCCCCCCCCCC(=O)O)C(=O)O)NC(=O)[C@H](CCC(N)=O)NC(=O)[C@H](C)NC(=O)[C@@H](NC(=O)[C@H](CCCCN)NC(=O)[C@H](CC(=O)O)NC(=O)[C@H](CC(C)C)NC(=O)C(C)(C)NC(=O)[C@@H](NC(=O)[C@H](CO)NC(=O)[C@H](Cc1ccc(O)cc1)NC(=O)[C@H](CC(=O)O)NC(=O)[C@H](CO)NC(=O)[C@@H](NC(=O)[C@](C)(Cc1ccccc1F)NC(=O)[C@@H](NC(=O)CNC(=O)[C@H](CCC(=O)O)NC(=O)CCNC(=O)C1(c2ccccc2)CCOCC1)[C@@H](C)O)[C@@H](C)O)[C@@H](C)CC)[C@@H](C)CC)C(C)C)C(=O)N[C@@H](C)C(=O)NCC(=O)NCC(=O)N1CCC[C@H]1C(=O)N[C@@H](CO)C(=O)N[C@@H](CO)C(=O)NCC(=O)N[C@@H](C)C(=O)N1CCC[C@H]1C(=O)N1CCC[C@H]1C(=O)N1CCC[C@H]1C(=O)N[C@@H](CO)C(N)=O [Compound 178] ({X46-βAla}-EGT[αMePhe(2-F)]TSDYSI[Aib]LDKIAQK([AEEA-AEEA-γGlu-C20 diacid])AFVQWLIAGGPSSGAPPPS-NH2) |  |  |  |  |  |  | 0.1 to 1 nM | 105% | 0.1 to 1 nM | 98% | > 1000 nM | < 1000 nM
3 | CC[C@H](C)[C@H](NC(=O)[C@H](CC(C)C)NC(=O)[C@H](Cc1c[nH]c2ccccc12)NC(=O)[C@H](CCC(N)=O)NC(=O)[C@@H](NC(=O)[C@H](Cc1ccccc1)NC(=O)[C@H](C)NC(=O)[C@H](CCCCNC(=O)COCCOCCNC(=O)COCCOCCNC(=O)CC[C@H](NC(=O)CCCCCCCCCCCCCCCCCCC(=O)O)C(=O)O)NC(=O)[C@H](CCC(N)=O)NC(=O)[C@H](C)NC(=O)[C@@H](NC(=O)[C@H](CCCCN)NC(=O)[C@H](CC(=O)O)NC(=O)[C@H](CC(C)C)NC(=O)C(C)(C)NC(=O)[C@@H](NC(=O)[C@H](CO)NC(=O)[C@H](Cc1ccc(O)cc1)NC(=O)[C@H](CC(=O)O)NC(=O)[C@H](CO)NC(=O)[C@@H](NC(=O)[C@](C)(Cc1ccccc1F)NC(=O)[C@@H](NC(=O)CNC(=O)[C@H](CCC(=O)O)NC(=O)CCNC(=O)C1(c2cccc(Cl)c2)CCCC1)[C@@H](C)O)[C@@H](C)O)[C@@H](C)CC)[C@@H](C)CC)C(C)C)C(=O)N[C@@H](C)C(=O)NCC(=O)NCC(=O)N1CCC[C@H]1C(=O)N[C@@H](CO)C(=O)N[C@@H](CO)C(=O)NCC(=O)N[C@@H](C)C(=O)N1CCC[C@H]1C(=O)N1CCC[C@H]1C(=O)N1CCC[C@H]1C(=O)N[C@@H](CO)C(N)=O [Compound 179] ({X62-βAla}-EGT[αMePhe(2-F)]TSDYSI[Aib]LDKIAQK([AEEA-AEEA-γGlu-C20 diacid])AFVQWLIAGGPSSGAPPPS-NH2) |  |  |  |  |  |  | 0.1 to 1 nM | 106% | 0.1 to 1 nM | 100% | > 1000 nM | < 1000 nM
4 | CC[C@H](C)[C@H](NC(=O)[C@H](CC(C)C)NC(=O)[C@H](Cc1c[nH]c2ccccc12)NC(=O)[C@H](CCC(N)=O)NC(=O)[C@@H](NC(=O)[C@H](Cc1ccccc1)NC(=O)[C@H](C)NC(=O)[C@H](CCCCNC(=O)COCCOCCNC(=O)COCCOCCNC(=O)CC[C@H](NC(=O)CCCCCCCCCCCCCCCCCCC(=O)O)C(=O)O)NC(=O)[C@H](CCC(N)=O)NC(=O)[C@H](C)NC(=O)[C@@H](NC(=O)[C@H](CCCCN)NC(=O)[C@H](CC(=O)O)NC(=O)[C@H](CC(C)C)NC(=O)C(C)(C)NC(=O)[C@@H](NC(=O)[C@H](CO)NC(=O)[C@H](Cc1ccc(O)cc1)NC(=O)[C@H](CC(=O)O)NC(=O)[C@H](CO)NC(=O)[C@@H](NC(=O)[C@H](Cc1ccccc1)NC(=O)[C@@H](NC(=O)CNC(=O)[C@H](CCC(=O)O)NC(=O)[C@@H](C)CNC(=O)C1(c2cccc(F)c2)CCCC1)[C@@H](C)O)[C@@H](C)O)[C@@H](C)CC)[C@@H](C)CC)C(C)C)C(=O)N[C@@H](C)C(=O)NCC(=O)NCC(=O)N1CCC[C@H]1C(=O)N[C@@H](CO)C(=O)N[C@@H](CO)C(=O)NCC(=O)N[C@@H](C)C(=O)N1CCC[C@H]1C(=O)N1CCC[C@H]1C(=O)N1CCC[C@H]1C(=O)N[C@@H](CO)C(N)=O [Compound 180] (X18-[β2hAla(2S)]EGTFTSDYSI[Aib]LDKIAQK([AEEA-AEEA-γGlu-C20 diacid])AFVQWLIAGGPSSGAPPPS-NH2) |  |  |  |  |  |  | 0.1 to 1 nM | 105% | 0.1 to 1 nM | 101% | > 1000 nM | < 1000 nM
5 | CC[C@H](C)[C@H](NC(=O)[C@H](CC(C)C)NC(=O)[C@H](Cc1c[nH]c2ccccc12)NC(=O)[C@H](CCC(N)=O)NC(=O)[C@@H](NC(=O)[C@H](Cc1ccccc1)NC(=O)[C@H](C)NC(=O)[C@H](CCCCNC(=O)COCCOCCNC(=O)COCCOCCNC(=O)CC[C@H](NC(=O)CCCCCCCCCCCCCCCCCCC(=O)O)C(=O)O)NC(=O)[C@H](CCC(N)=O)NC(=O)[C@H](C)NC(=O)[C@@H](NC(=O)[C@H](CCCCN)NC(=O)[C@H](CC(=O)O)NC(=O)[C@H](CC(C)C)NC(=O)C(C)(C)NC(=O)[C@@H](NC(=O)[C@H](CO)NC(=O)[C@H](Cc1ccc(O)cc1)NC(=O)[C@H](CC(=O)O)NC(=O)[C@H](CO)NC(=O)[C@@H](NC(=O)[C@H](Cc1ccccc1)NC(=O)[C@@H](NC(=O)CNC(=O)[C@H](CCC(=O)O)NC(=O)[C@@H](C)CNC(=O)C1(c2ccc(Cl)cc2)CCCC1)[C@@H](C)O)[C@@H](C)O)[C@@H](C)CC)[C@@H](C)CC)C(C)C)C(=O)N[C@@H](C)C(=O)NCC(=O)NCC(=O)N1CCC[C@H]1C(=O)N[C@@H](CO)C(=O)N[C@@H](CO)C(=O)NCC(=O)N[C@@H](C)C(=O)N1CCC[C@H]1C(=O)N1CCC[C@H]1C(=O)N1CCC[C@H]1C(=O)N[C@@H](CO)C(N)=O [Compound 181] ({cPentCO(1-(4-ClPh))}-[β2hAla(2S)]EGTFTSDYSI[Aib]LDKIAQK([AEEA-AEEA-γGlu-C20 diacid])AFVQWLIAGGPSSGAPPPS-NH2) |  |  |  |  |  |  | 1 to 10 nM | 106% | 0.1 to 1 nM | 97% | > 1000 nM | < 1000 nM
